ChEMBL document CHEMBL3091302, “Kadcotriones A-C: tricyclic triterpenoids from Kadsura coccinea” (J Nat Prod, 2013)

Columns and labels:
[1] = system: Human immunodeficiency virus 1; assay: Antiviral activity against HIV1 3B infected in human C8166 cells assessed as inhibition of viral-induced cytopathogenicity by syncytium formation assay; format: functional, organism-based; details: Human immunodeficiency virus 1, 3B
[2] = system: SW480; assay: Cytotoxicity against human SW480 cells after 48 hrs by MTT assay; format: functional, cell-based; details: SW480, 48 h
[3] = system: MCF7; assay: Cytotoxicity against human MCF7 cells after 48 hrs by MTT assay; format: functional, cell-based; details: MCF7, 48 h
[4] = system: SMMC-7721; assay: Cytotoxicity against human SMMC7721 cells after 48 hrs by MTT assay; format: functional, cell-based; details: SMMC-7721, 48 h
[5] = system: A549; assay: Cytotoxicity against human A549 cells after 48 hrs by MTT assay; format: functional, cell-based; details: A549, 48 h

With `C/C(=C\CC[C@@H](C)[C@H]1CC[C@@]2(C)[C@@H]3CC[C@H]4C(C)(C)C(=O)CC[C@]4(C)C3=C[C@@H](O)[C@]12C)C(=O)O` the EC50 [1] was 54.8 µM, the IC50 [2] was greater than 40 µM and the IC50 [3] was greater than 40 µM. The IC50 [4] was greater than 40 µM and the IC50 [5] was greater than 40 µM.

In the case of `C/C(=C\CC[C@@H](C)C(=O)CC[C@]1(C)C(=O)C=C2[C@H]1CC[C@H]1C(C)(C)C(=O)CC[C@]21C)C(=O)O`, the EC50 [1] is reported as 30.3 µM, the IC50 [2] is reported as greater than 40 µM and the IC50 [3] is reported as greater than 40 µM. For the same molecule, the IC50 [4] was greater than 40 µM and the IC50 [5] was greater than 40 µM.

For `CC1=C[C@]2(O)[C@@H](CC[C@H]3C(C)(C)C(=O)CC[C@@]32C)[C@@](C)(CCC(=O)[C@H](C)CC/C=C(\C)C(=O)O)C1=O`, the IC50 [2] was greater than 40 µM, the IC50 [3] was greater than 40 µM and the IC50 [4] was greater than 40 µM. For the same molecule, the IC50 [5] was greater than 40 µM.

Molecule `Cc1cn([C@H]2C[C@H](N=[N+]=[N-])[C@@H](CO)O2)c(=O)[nH]c1=O` [ZIDOVUDINE] has an EC50 [1] of 0.02 µM.
